Experimental data reported in ChEMBL document CHEMBL5325408, “Design, synthesis, and biological activity studies on benzimidazole derivatives targeting myeloperoxidase” (Eur J Med Chem, 2023).

Columns and labels:
[1] = target: T1, Myeloperoxidase (Homo sapiens) (UniProt P05164); assay: Inhibition of human MPO using taurine as substrate assessed as reduction in substrate chlorination at 20 uM incubated for 30 mins by taurine-chloramine assay relative to control
T1 sequence (whole entry): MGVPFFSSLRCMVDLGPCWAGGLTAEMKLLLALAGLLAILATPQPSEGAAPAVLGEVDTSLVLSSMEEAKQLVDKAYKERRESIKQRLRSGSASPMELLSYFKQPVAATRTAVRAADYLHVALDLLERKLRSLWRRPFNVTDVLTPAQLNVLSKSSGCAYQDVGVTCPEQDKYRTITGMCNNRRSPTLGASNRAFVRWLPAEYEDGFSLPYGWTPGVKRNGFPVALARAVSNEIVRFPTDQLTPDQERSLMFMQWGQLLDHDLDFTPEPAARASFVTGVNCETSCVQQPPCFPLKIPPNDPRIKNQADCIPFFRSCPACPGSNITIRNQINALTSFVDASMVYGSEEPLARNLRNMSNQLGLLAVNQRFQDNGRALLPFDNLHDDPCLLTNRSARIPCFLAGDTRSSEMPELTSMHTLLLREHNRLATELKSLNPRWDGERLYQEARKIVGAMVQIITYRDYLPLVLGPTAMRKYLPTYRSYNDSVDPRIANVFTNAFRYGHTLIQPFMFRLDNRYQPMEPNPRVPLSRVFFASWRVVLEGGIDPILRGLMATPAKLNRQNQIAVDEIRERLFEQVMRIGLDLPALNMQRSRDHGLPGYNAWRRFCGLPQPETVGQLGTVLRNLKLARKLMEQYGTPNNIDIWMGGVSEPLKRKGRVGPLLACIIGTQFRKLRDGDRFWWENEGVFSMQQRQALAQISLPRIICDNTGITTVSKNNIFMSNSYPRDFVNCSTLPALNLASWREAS

Myeloperoxidase [2] = target: T2, Myeloperoxidase (Homo sapiens, UniProt P05164); assay: Inhibition of human MPO using taurine as substrate assessed as reduction in substrate chlorination incubated for 30 mins by taurine-chloramine assay
T2 sequence (P05164 whole entry): T1 sequence (whole entry)

[3] = target: T1, Myeloperoxidase (Homo sapiens); assay: Inhibition of human MPO peroxidase activity at 100 uM incubated in presence of H2O2 by amplex red assay relative to control
[4] = Antioxidant activity assessed as HOCl scavenging activity at 100 uM incubated for 10 mins in presence of TNB and taurine by absorbance based assay relative to control; assay type: functional
Myeloperoxidase [5] = target: T2, Myeloperoxidase; assay: Inhibition of human MPO peroxidase activity incubated in presence of H2O2 by amplex red assay

inhibition [1]	Compound	also measured
36.9%	COc1ccc(NC(=O)Cn2c(Cl)nc3ccccc32)cc1	–
35.9%	O=C(CSc1nc2ccccc2[nH]1)N1CCOCC1	–
31.8%	O=C(Cn1c(Cl)nc2ccccc21)Nc1ccccc1[N+](=O)[O-]	–
36.5%	Cc1ccc(NC(=O)Cn2c(Cl)nc3ccccc32)cc1	–
75.7%	O=C(Cn1c(=S)[nH]c2ccccc21)Nc1cccc(Cl)c1	IC50 (Myeloperoxidase [2]): 9.44 µM; inhibition [3]: 29.8%; Activity [4]: 1.04%
27.9%	O=C(Cn1c(Cl)nc2ccccc21)Nc1ccccc1	–
63.8%	O=C(Cn1c(Cl)nc2ccccc21)Nc1ccc(Cl)cc1	–
54.4%	O=C(CSc1nc2ccccc2[nH]1)Nc1ccccc1Cl	–
93.2%	NNC(=O)Cn1c(=S)[nH]c2ccccc21	IC50 (Myeloperoxidase [2]): 0.39 µM; inhibition [3]: 71%; IC50 (Myeloperoxidase [5]): 82.7 µM
21.9%	O=C(Cn1c(Cl)nc2ccccc21)Nc1ccccc1Cl	–
28.5%	Cc1ccccc1NC(=O)Cn1c(Cl)nc2ccccc21	–
61.4%	COc1cccc(NC(=O)CSc2nc3ccccc3[nH]2)c1	–
81.7%	COc1ccc(NC(=O)Cn2c(=S)[nH]c3ccccc32)cc1	IC50 (Myeloperoxidase [2]): 4.08 µM; inhibition [3]: 30.5%; Activity [4]: 2.83%
51.3%	CCOC(=O)Cn1c(=S)[nH]c2ccccc21	–
50%	COc1ccc(NC(=O)CSc2nc3ccccc3[nH]2)cc1	–
56.1%	O=C(CSc1nc2ccccc2[nH]1)Nc1cccc(Cl)c1	–
73%	Cc1ccc(NC(=O)CSc2nc3ccccc3[nH]2)cc1	IC50 (Myeloperoxidase [2]): 8.51 µM; inhibition [3]: 0%
54%	O=C(Cn1c(Cl)nc2ccccc21)Nc1ccc([N+](=O)[O-])cc1	–
24.9%	O=C(Cn1c(Cl)nc2ccccc21)NCc1ccccc1	–
94.3%	COc1ccccc1NC(=O)Cn1c(=S)[nH]c2ccccc21	IC50 (Myeloperoxidase [2]): 3.72 µM; inhibition [3]: 19.1%; Activity [4]: 8.77%
52.2%	O=C(Cn1c(=S)[nH]c2ccccc21)N1CCOCC1	–
61.9%	O=C(Cn1c(=S)[nH]c2ccccc21)Nc1cccc([N+](=O)[O-])c1	–
29.1%	O=C(Cn1c(Cl)nc2ccccc21)N1CCCCC1	–
72.6%	COc1ccccc1NC(=O)CSc1nc2ccccc2[nH]1	IC50 (Myeloperoxidase [2]): 10.4 µM; inhibition [3]: 0%
39.3%	COc1ccccc1NC(=O)Cn1c(Cl)nc2ccccc21	–
67.8%	O=C(Cn1c(Cl)nc2ccccc21)Nc1cccc(Cl)c1	–
61.4%	O=C(Cn1c(=S)[nH]c2ccccc21)Nc1ccc([N+](=O)[O-])cc1	–
68.9%	COc1cc(NC(=O)CSc2nc3ccccc3[nH]2)cc(OC)c1OC	–

inhibition [1]	Compound	also measured
34.8%	Cc1cccc(NC(=O)Cn2c(Cl)nc3ccccc32)c1	–
46.6%	COc1cccc(NC(=O)Cn2c(Cl)nc3ccccc32)c1	–
63.6%	O=C(CSc1nc2ccccc2[nH]1)NCc1ccccc1	–
62.6%	COc1cc(NC(=O)Cn2c(=S)[nH]c3ccccc32)cc(OC)c1OC	–
52.6%	O=C(CSc1nc2ccccc2[nH]1)Nc1ccc(Cl)cc1	–
89.4%	O=C(Cn1c(=S)[nH]c2ccccc21)Nc1ccccc1Cl	IC50 (Myeloperoxidase [2]): 6.67 µM; inhibition [3]: 47.6%; Activity [4]: 5.47%
70.2%	O=C(Cn1c(=S)[nH]c2ccccc21)Nc1ccccc1[N+](=O)[O-]	IC50 (Myeloperoxidase [2]): 5.63 µM; inhibition [3]: 22.6%
33.3%	CCOC(=O)Cn1c(Cl)nc2ccccc21	–
93%	Cc1ccccc1NC(=O)Cn1c(=S)[nH]c2ccccc21	IC50 (Myeloperoxidase [2]): 4.26 µM; inhibition [3]: 24%; Activity [4]: 0.94%
44.9%	Cc1ccccc1NC(=O)CSc1nc2ccccc2[nH]1	–
58.2%	O=C(Cn1c(=S)[nH]c2ccccc21)N1CCCCC1	–
51.2%	O=C(Cn1c(=S)[nH]c2ccccc21)NO	–
62.1%	O=C(CSc1nc2ccccc2[nH]1)Nc1ccc([N+](=O)[O-])cc1	–
41.1%	Cc1ccc(NC(=O)Cn2c(S)nc3ccccc32)cc1	–
85.3%	O=C(Cn1c(=S)[nH]c2ccccc21)Nc1ccc(Cl)cc1	IC50 (Myeloperoxidase [2]): 7.76 µM; inhibition [3]: 21.7%; Activity [4]: 5.85%
32.7%	O=C(Cn1c(Cl)nc2ccccc21)N1CCOCC1	–
62.3%	O=C(CSc1nc2ccccc2[nH]1)Nc1cccc([N+](=O)[O-])c1	–
50%	O=C(CSc1nc2ccccc2[nH]1)Nc1ccccc1	–
35.7%	COc1cc(NC(=O)Cn2c(Cl)nc3ccccc32)cc(OC)c1OC	–
91.9%	O=C(Cn1c(=S)[nH]c2ccccc21)Nc1ccccc1	IC50 (Myeloperoxidase [2]): 5.64 µM; inhibition [3]: 57.5%; IC50 (Myeloperoxidase [5]): 95.4 µM
32%	O=C(CSc1nc2ccccc2[nH]1)N1CCCCC1	–
92.5%	Cc1cccc(NC(=O)CSc2nc3ccccc3[nH]2)c1	IC50 (Myeloperoxidase [2]): 6.41 µM; inhibition [3]: 4.3%
91.4%	Cc1cccc(NC(=O)Cn2c(=S)[nH]c3ccccc32)c1	IC50 (Myeloperoxidase [2]): 3.86 µM; inhibition [3]: 26.7%; Activity [4]: 6.79%
44%	O=C(Cn1c(Cl)nc2ccccc21)Nc1cccc([N+](=O)[O-])c1	–
65.5%	COc1cccc(NC(=O)Cn2c(=S)[nH]c3ccccc32)c1	–
48.5%	O=C(CSc1nc2ccccc2[nH]1)Nc1ccccc1[N+](=O)[O-]	–
95.3%	O=C(Cn1c(=S)[nH]c2ccccc21)NCc1ccccc1	IC50 (Myeloperoxidase [2]): 4.33 µM; inhibition [3]: 53.3%; IC50 (Myeloperoxidase [5]): 97.3 µM
